# Entries after “also recorded” stand apart in the source; their conditions may differ.
# System: human PDZ domains
# Assay: G assay, E6 PL peptides against PDZ domain panel
# Settings: value names the PDZ domain(s) that saturated binding with the E6 peptide; signal classes (A450 nm 3-4 or 4)
# Method: (1) A PDZ-domain polypeptide is bound to a surface, e.g. a protein binding surface. In a preferred embodiment, a GST/PDZ fusion protein containing one or more PDZ domains is bound to a polystyrene 96-well plate. […] In one embodiment, the GST/PDZ fusion protein is bound via an anti-GST antibody that is coated onto the 96-well plate. Adequate binding to the plate can be achieved when: • a. 100 uL per well of 5 ug/mL goat anti-GST polyclonal antibody (Pierce) in PBS is added to a polystyrene 96-well plate (e.g., Num Polysorb) at 4° C. for 12 hours. • b. The plate is blocked by addition of 200 uL per well of PBS/BSA for 2 hours at 4° C. • c. The plate is washed 3 times with PBS. • d. […]
# (3) The binding of the biotinylated peptide to the GST/PDZ fusion protein surface can be detected using a variety of methods and detectors known to one of skill in the art. […] The reaction of the HRP and its substrate is terminated by addition of 100 uL per well of 1M sulfuric acid, and the absorbance of each well of the plate is read at 450 nm.
# (4) Specific binding of a PL peptide and a PDZ domain polypeptide is determined by comparing the signal from the well(s) in which the PL peptide and PDZ domain polypeptide are combined, with the background signal(s). […]
substance,measurement,value
"20 mer peptide corresponding to the C-terminus of HPV16 E6 (PDZ ligand), biotinylated in binding assays; ends SSRTRRETQL (SEQ ID NO: 13) [HPV E6 #16]",PDZ binding partner (signal 4 and 5 of 0-5),TIP-1; also recorded: Magi1 (PDZ #2)
